Data: ChEMBL document CHEMBL4417631, “Oral peptide inhibitors of interleukin-23 receptor and their use to treat inflammatory bowel diseases” (2017)
Where a SMILES comes first, the peptide text is derived from it. [ ]: non-standard residue; d: D form. 2Nal = N[C@@H](Cc1ccc2ccccc2c1)C(=O)O; AEF = NCCOc1ccc(C[C@H](N)C(=O)O)cc1; Pen = CC(C)(S)[C@H](N)C(=O)O; hLeu = CC(C)CC[C@H](N)C(=O)O; Aib = CC(C)(N)C(=O)O

Columns and labels:
[1] = biological target: T1, Interleukin-23 receptor (Homo sapiens, UniProt Q5VWK5); assay: Inhibition of interleukin-23 receptor in human DB cells assessed as reduction in IL-23-stimulated STAT3 phosphorylation incubated for 30 mins by HTRF assay; format: cell-based
T1 sequence (Q5VWK5 whole entry): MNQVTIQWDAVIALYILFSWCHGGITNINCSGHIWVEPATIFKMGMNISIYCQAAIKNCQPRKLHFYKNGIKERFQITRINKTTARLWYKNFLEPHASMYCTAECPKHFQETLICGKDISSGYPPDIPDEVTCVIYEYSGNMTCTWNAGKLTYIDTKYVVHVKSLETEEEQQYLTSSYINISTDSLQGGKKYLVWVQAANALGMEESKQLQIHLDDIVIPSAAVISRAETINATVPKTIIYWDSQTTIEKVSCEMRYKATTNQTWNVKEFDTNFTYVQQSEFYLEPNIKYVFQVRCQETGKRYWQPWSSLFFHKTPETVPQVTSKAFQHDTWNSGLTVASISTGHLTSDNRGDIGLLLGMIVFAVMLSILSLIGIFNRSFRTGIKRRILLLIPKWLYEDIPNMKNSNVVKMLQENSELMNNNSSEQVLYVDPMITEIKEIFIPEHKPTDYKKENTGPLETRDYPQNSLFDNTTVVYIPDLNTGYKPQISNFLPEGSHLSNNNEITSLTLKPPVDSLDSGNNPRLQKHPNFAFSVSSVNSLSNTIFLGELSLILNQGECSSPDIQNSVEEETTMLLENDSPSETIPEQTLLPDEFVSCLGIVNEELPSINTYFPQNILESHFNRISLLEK

[2] = biological target: T1, Interleukin-23 receptor; assay: Inhibition of interleukin-23 binding to human interleukin-23 receptor incubated for 2 hrs by competitive binding ELISA

COc1ccc(C[C@H](NC(=O)[C@@H](NC(=O)[C@H](CCC(N)=O)NC(=O)[C@H](Cc2c[nH]c3ccccc23)NC(=O)[C@@H](NC(=O)[C@H](CCC(N)=O)NC(=O)[C@@H](NC(C)=O)C(C)(C)S)[C@@H](C)O)C(C)(C)S)C(=O)N[C@@H](Cc2ccc3ccccc3c2)C(=O)N[C@](C)(C(=O)N[C@@H](CCCCNC(C)=O)C(=O)N[C@@H](CC(N)=O)C(=O)N[C@@H](CC(N)=O)C(=O)N[C@@H](N)CCCCN)C(C)C)cc1
IC50 [1]: < 10 nM

CC(=O)NCCCC[C@H](NC(=O)C(C)(C)NC(=O)[C@H](Cc1ccc2ccccc2c1)NC(=O)[C@H](Cc1ccc(OCCN)cc1)NC(=O)[C@@H](NC(=O)[C@H](CCC(N)=O)NC(=O)[C@H](Cc1c[nH]c2ccccc12)NC(=O)[C@@H](NC(=O)[C@H](CCC(N)=O)NC(=O)[C@@H](NC(=O)[C@H](CC(C)C)NC(C)=O)C(C)(C)S)[C@@H](C)O)C(C)(C)S)C(=O)N[C@@H](CC(N)=O)C(=O)N[C@@H](CC(N)=O)C(N)=O (Ac-L[Pen]QTWQ[Pen][AEF][2Nal][Aib]K(Ac)NN-NH2)
IC50 [1]: < 10 nM

CC(=O)NCCCC[C@H](NC(=O)C(C)(C)NC(=O)[C@H](Cc1ccc2ccccc2c1)NC(=O)[C@H](Cc1ccc(OCCN)cc1)NC(=O)[C@@H](NC(=O)[C@H](CCC(N)=O)NC(=O)[C@H](Cc1c[nH]c2ccccc12)NC(=O)[C@@H](NC(=O)[C@H](CCC(N)=O)NC(=O)[C@@H](NC(C)=O)C(C)(C)S)[C@@H](C)O)C(C)(C)S)C(=O)N[C@@H](CC(N)=O)C(=O)N[C@@H](C)C(N)=O
IC50 [1]: < 10 nM

CCCCCCCC[C@H](NC(=O)[C@H](Cc1c[nH]c2ccccc12)NC(=O)[C@H](Cc1ccc(O)cc1)NC(=O)[C@H](CS)NC(=O)[C@H](CCC(N)=O)NC(=O)[C@H](Cc1c[nH]c2ccccc12)NC(=O)[C@@H](NC(=O)[C@H](CCC(N)=O)NC(=O)[C@H](CS)NC(C)=O)[C@@H](C)O)C(=O)N[C@@H](CCC(=O)O)C(=O)N[C@@H](CC(N)=O)C(=O)NCC(N)=O
IC50 [1]: 76 nM

CC(=O)NCCCC[C@H](NC(=O)C(C)(C)NC(=O)[C@H](Cc1ccc2ccccc2c1)NC(=O)[C@H](Cc1ccc(OCCN)cc1)NC(=O)[C@@H](NC(=O)[C@H](CCC(N)=O)NC(=O)[C@H](Cc1c[nH]c2ccccc12)NC(=O)[C@@H](NC(=O)[C@H](CCC(N)=O)NC(=O)[C@@H](NC(=O)[C@H](CCC(=O)O)NC(C)=O)C(C)(C)S)[C@@H](C)O)C(C)(C)S)C(=O)N[C@@H](CC(N)=O)C(=O)N[C@@H](CC(N)=O)C(N)=O (Ac-E[Pen]QTWQ[Pen][AEF][2Nal][Aib]K(Ac)NN-NH2)
IC50 [1]: < 10 nM

CC(=O)N[C@@H](CS)C(=O)N[C@@H](C)C(=O)N[C@@H](CC(=O)O)C(=O)N[C@@H](Cc1c[nH]c2ccccc12)C(=O)N[C@H](C(=O)N[C@@H](CS)C(=O)N[C@@H](Cc1ccc(O)cc1)C(=O)N[C@@H](Cc1cccc2ccccc12)C(=O)N(C)[C@@H](Cc1cnc[nH]1)C(=O)N[C@H](C)C(=O)N[C@@H](Cc1ccccc1)C(=O)NC(C)(C)C(N)=O)C(C)C
IC50 [2]: > 1000 nM

CC(=O)NCCCC[C@H](NC(=O)[C@](C)(CCCCN)NC(=O)[C@H](Cc1ccc2ccccc2c1)NC(=O)[C@H](CCc1ccc(O)cc1)NC(=O)[C@@H]1CSCC[C@H](NC(C)=O)C(=O)N[C@@H](CCC(N)=O)C(=O)N[C@@H]([C@@H](C)O)C(=O)N[C@@H](Cc2c[nH]c3ccccc23)C(=O)N[C@@H](CCC(N)=O)C(=O)N1)C(=O)N[C@@H](CC(N)=O)C(=O)NCC(N)=O
IC50 [2]: > 1000 nM

CC(=O)N[C@@H](CS)C(=O)N[C@@H](C)C(=O)N[C@@H](CC(=O)O)C(=O)N[C@@H](Cc1c[nH]c2ccccc12)C(=O)N[C@H](C(=O)N[C@@H](CS)C(=O)N[C@@H](Cc1ccc(O)cc1)C(=O)N[C@@H](Cc1c[nH]c2ccccc12)C(=O)N[C@@H](Cc1cnc[nH]1)C(=O)N[C@H](C(=O)N[C@@H](Cc1ccccc1)C(=O)NCC(=O)N[C@@H](C)C(=O)N1CC[C@H]1C(=O)N[C@H](CCCCN)C(=O)O)[C@@H](C)O)C(C)C
IC50 [2]: 100 to 1000 nM

CC(=O)N[C@@H](CS)C(=O)N[C@@H](C)C(=O)N[C@@H](CC(=O)O)C(=O)N[C@@H](Cc1c[nH]c2ccccc12)C(=O)N[C@H](C(=O)N[C@@H](CS)C(=O)N[C@@H](Cc1ccc(O)cc1)C(=O)N[C@@H](Cc1cccc2ccccc12)C(=O)N[C@@H](Cc1cnc[nH]1)C(=O)NC(C)(C)C(=O)N[C@H](Cc1ccccc1)C(=O)NCC(N)=O)C(C)C
IC50 [2]: > 1000 nM

CC(C)[C@H](NC(=O)[C@H](Cc1c[nH]c2ccccc12)NC(=O)[C@H](CC(=O)O)NC(=O)CN(C)C(=O)[C@@H](N)CS)C(=O)N[C@@H](CS)C(=O)N[C@@H](Cc1ccc(O)cc1)C(=O)N[C@@H](Cc1cccc2ccccc12)C(=O)N[C@@H](Cc1cnc[nH]1)C(=O)N[C@H](C(=O)N[C@@H](Cc1ccccc1)C(=O)O)[C@@H](C)O
IC50 [2]: > 1000 nM

CC(=O)N[C@@H](CS)C(=O)N[C@@H](CCC(N)=O)C(=O)N[C@H](C(=O)N[C@@H](CC(N)=O)C(=O)N[C@@H](CCC(N)=O)C(=O)N[C@@H](CS)C(=O)N[C@@H](Cc1ccc(O)cc1)C(=O)N[C@@H](Cc1c[nH]c2ccccc12)C(=O)N[C@@H](CCC(C)C)C(=O)N[C@@H](CCC(=O)O)C(=O)N[C@@H](CC(N)=O)C(=O)NCC(N)=O)[C@@H](C)O (Ac-CQTNQCYW[hLeu]ENG-NH2)
IC50 [2]: > 10000 nM

CC(=O)N[C@@H](CS)C(=O)N[C@@H](C)C(=O)N[C@@H](CC(=O)O)C(=O)N[C@@H](Cc1c[nH]c2ccccc12)C(=O)N[C@@H](CCC(=O)O)C(=O)N[C@@H](CS)C(=O)N[C@@H](Cc1ccc(O)cc1)C(=O)N[C@@H](Cc1c[nH]c2ccccc12)C(=O)N[C@@H](Cc1cnc[nH]1)C(=O)N[C@H](C(=O)N[C@@H](Cc1ccccc1)C(=O)NCC(N)=O)[C@@H](C)O
IC50 [2]: > 1000 nM

CC(=O)N[C@@H](CS)C(=O)N[C@@H](C)C(=O)N[C@@H](CC(=O)O)C(=O)N[C@@H](Cc1c[nH]c2ccccc12)C(=O)N[C@H](C(=O)N[C@@H](CS)C(=O)N[C@@H](Cc1ccc(O)cc1)C(=O)N[C@@H](Cc1c[nH]c2ccccc12)C(=O)N[C@@H](Cc1cnc[nH]1)C(=O)N[C@@H](CC(N)=O)C(=O)N[C@@H](Cc1cnc[nH]1)C(=O)N[C@@H](CO)C(=O)N[C@@H](CCC(=O)O)C(=O)NCC(=O)N[C@@H](CO)C(=O)NCC(N)=O)C(C)C (Ac-CADWVCYWHNHSEGSG-NH2)
IC50 [2]: 500 to 1000 nM

CC(=O)N[C@@H](CS)C(=O)N[C@@H](CCCNC(=N)N)C(=O)N[C@@H](CC(=O)O)C(=O)N[C@@H](Cc1c[nH]c2ccccc12)C(=O)N[C@@H](CCC(N)=O)C(=O)N[C@@H](CS)C(=O)N[C@@H](Cc1ccc(O)cc1)C(=O)N[C@@H](Cc1c[nH]c2ccccc12)C(=O)N[C@@H](CCCNC(=N)N)C(=O)N[C@H](CCCCN)C(=O)N[C@@H](Cc1ccccc1)C(=O)NCC(=O)NCCOCCC(=O)N[C@H](CCCCN)C(N)=O
IC50 [2]: > 1000 nM

CC(=O)N[C@@H](CS)C(=O)N[C@@H](CCC(N)=O)C(=O)N[C@H](C(=O)N[C@@H](Cc1c[nH]c2ccccc12)C(=O)N[C@@H](CCC(N)=O)C(=O)N[C@@H](CS)C(=O)N[C@@H](Cc1cnc[nH]1)C(=O)N[C@@H](Cc1c[nH]c2ccccc12)C(=O)N[C@@H](CCC(C)C)C(=O)N[C@@H](CCC(=O)O)C(=O)N[C@@H](CC(N)=O)C(=O)NCC(N)=O)[C@@H](C)O
IC50 [2]: 6000 nM

CC(C)[C@H](NC(=O)[C@H](Cc1cnc[nH]1)NC(=O)[C@H](Cc1c[nH]c2ccccc12)NC(=O)[C@H](Cc1ccc(O)cc1)NC(=O)[C@H](CS)NC(=O)[C@@H](NC(=O)[C@H](Cc1c[nH]c2ccccc12)NC(=O)[C@@H](NC(=O)[C@H](CCCNC(=N)N)NC(=O)[C@@H](N)CS)[C@@H](C)O)[C@@H](C)O)C(=O)N[C@@H](Cc1ccc(O)cc1)C(=O)NCC(N)=O (H-CRTWTCYWHVYG-NH2)
IC50 [2]: 500 to 1000 nM

CC(=O)N[C@@H](C)C(=O)N[C@H](C(=O)N[C@@H](CC(=O)O)C(=O)N[C@@H](Cc1c[nH]c2ccccc12)C(=O)N[C@H](C(=O)N[C@@H](CS)C(=O)N[C@@H](Cc1ccc(O)cc1)C(=O)N[C@@H](Cc1c[nH]c2ccccc12)C(=O)N[C@@H](CCCNC(=N)N)C(=O)N[C@@H](CCCCN)C(=O)N[C@@H](Cc1ccccc1)C(=O)NCC(=O)NCCOCC(=O)N[C@H](CCCCN)C(N)=O)C(C)C)C(C)(C)S
IC50 [2]: 100 to 1000 nM

CC(=O)N[C@@H](CS)C(=O)N[C@@H](CCC(N)=O)C(=O)N[C@H](C(=O)N[C@@H](Cc1c[nH]c2ccccc12)C(=O)N[C@@H](CCC(N)=O)C(=O)N[C@@H](CS)C(=O)N[C@@H](Cc1ccc(O)cc1)C(=O)N[C@@](C)(Cc1c[nH]c2ccccc12)C(=O)N[C@@H](CCCNC(N)=O)C(=O)N[C@@H](CCC(C)C)C(=O)N[C@@H](CC(N)=O)C(=O)NCC(=O)NCCC(=O)N[C@H](CCCCN)C(N)=O)[C@@H](C)O
IC50 [2]: 6000 nM

CC(=O)NCCCC[C@H](NC(=O)[C@](C)(CCCCN)NC(=O)[C@H](Cc1ccc2ccccc2c1)NC(=O)[C@@H](NC(=O)[C@H](CCC(N)=O)NC(=O)[C@H](Cc1c[nH]c2ccccc12)NC(=O)[C@@H](NC(=O)[C@H](CCC(N)=O)NC(=O)[C@@H](NC(C)=O)C(C)(C)S)[C@@H](C)O)C(C)(C)S)C(=O)N[C@@H](CC(N)=O)C(=O)NCC(N)=O
IC50 [2]: > 10000 nM

C[C@H](N)C(=O)N[C@@H](CS)C(=O)N[C@@H](CC(=O)O)C(=O)N[C@@H](Cc1c[nH]c2ccccc12)C(=O)N[C@@H](CS)C(=O)N[C@@H](CS)C(=O)N[C@@H](Cc1ccc(O)cc1)C(=O)N[C@@H](Cc1c[nH]c2ccccc12)C(=O)N[C@@H](CS)C(=O)N[C@H](C(=O)N[C@@H](Cc1ccccc1)C(=O)NCC(N)=O)[C@@H](C)O (H-ACDWCCYWCTFG-NH2)
IC50 [2]: > 1000 nM
